From patent US4435566A, “Thiopyranopyrimidine compounds and acid addition salts thereof” (Maruko Seiyaku Co., Ltd., priority 1982, dated 1984)
Entries after “also recorded” stand apart in the source; their conditions may differ. Where two headings read alike, the source gives them in different places.

Assays:
platelet aggregation = test: Inhibition of platelet aggregation in platelet-rich plasma (aggregometer); type: cell-based, rabbits (male); settings: for IC50: Oryctolagus cuniculus, Platelet; for Percent Inhibition, Collagen: Collagen (5 × 10^-4 g/ml)
Experimental: A blood sample drawn from a jugular vein of unanesthetized male rabbits (body weight: 2.2 to 2.6 kg) was mixed with a 3.8% aqueous sodium citrate solution in a proportion of 9:1 (by volume) and the mixture was centrifuged at 1,000 rpm for 10 minutes to obtain a platelet-rich plasma (about 5×10^5 platelets/mm^3, hereinafter "PRP"). To […] of PRP was added […] of an aqueous solution of the test compound and, after 2 hours, to the mixture was added either an adenosine diphosphate (ADP) solution (final concentration: 5×10^-6 M), a sodium arachidonate solution (final concentration: 5×10^-4 M) or collagen. The percent platelet aggregation was determined using an aggregometer and the inhibition of platelet aggregation by the test compound was calculated.

[1] = molecular target: T1, ileum of Hartley male guinea pig (histamine) (Cavia porcellus, UniProt P31389); test: Anti-histamine activity on isolated ileum (Magnus tube, cumulative technique); settings: for Kb: Tyrode solution, 25±0.5° C., histamine added after 5 minutes, read-out: pA2 Value (converted)
T1 construct: The ileum of Hartley male guinea pig (body weight: 350-400 g) was extracted and suspended in a Magnus tube; from tissue; host or cells: isolated ileum of Hartley male guinea pig
T1 sequence (P31389 whole entry): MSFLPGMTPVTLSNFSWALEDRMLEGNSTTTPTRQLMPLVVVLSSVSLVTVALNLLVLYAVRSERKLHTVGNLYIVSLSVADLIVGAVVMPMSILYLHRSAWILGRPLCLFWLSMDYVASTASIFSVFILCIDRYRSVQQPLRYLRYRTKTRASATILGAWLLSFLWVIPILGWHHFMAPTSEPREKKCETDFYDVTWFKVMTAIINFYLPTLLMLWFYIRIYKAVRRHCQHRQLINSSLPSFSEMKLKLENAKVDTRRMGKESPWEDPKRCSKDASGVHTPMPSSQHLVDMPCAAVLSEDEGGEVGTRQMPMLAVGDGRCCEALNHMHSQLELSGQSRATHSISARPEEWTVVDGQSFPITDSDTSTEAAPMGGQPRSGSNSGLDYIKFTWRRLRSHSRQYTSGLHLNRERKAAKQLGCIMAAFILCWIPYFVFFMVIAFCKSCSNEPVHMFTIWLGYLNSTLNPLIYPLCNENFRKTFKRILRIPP
Experimental: The ileum of Hartley male guinea pig (body weight: 350-400 g) was extracted and suspended in a Magnus tube containing 40 ml of Tyrode solution and the muscle movement was recorded on a soot paper via an isotonic Hebel. The solution in the Magnus tube was maintained at 25±0.5° C. during the test and test compound was previously added to the solution.

[2] = Acute toxicity (Behrens-Karber method); settings: mouse, in vivo, mortality one week after administration
Experimental: The test compound was administered orally (p.o.) or intravenously (i.v.) from a tail vein to ddY male mice weighing 24±2 g. The LD50 values were calculated by the Behrens-Karber method [Arch. exp. Path. Pharmak., 177, 379 (1935)] from the mortality one week after administration.

Alloxan Diabetes Mice [3] = test: Hypoglycemic activity (a): effect on alloxan diabetes mice, blood sugar 2 hours after oral administration; type: in vivo, mice (ddY male); settings: for % Change in Blood Sugar Level / Blood Sugar Level Mean ± S.E.: 2 hours after administration; for Blood Sugar Level Mean ± S.E.: alloxan 40 mg/kg i.v.
Experimental: Alloxan was administered intravenously at a dose of 40 mg/kg from a tail vein to ddY male mice weighing 28.2 to 29.5 g. Seven days after administration, the test compound was administered orally to the mice and the blood sugar level was determined before and 2 hours after the administration of the test compound.

Alloxan Diabetes Rats [4] = test: Hypoglycemic activity (b)(1): effect on alloxan diabetes rats, blood sugar 2 hours after oral administration; type: in vivo, rats (Wister male); settings: for % Change in Blood Sugar Level / Blood Sugar Level Mean ± S.E.: 2 hours after administration; for Blood Sugar Level Mean ± S.E.: alloxan 30 mg/kg i.v.
Experimental: (1) Alloxan was administered intravenously at a dose of 30 mg/kg from a tail vein to Wister male rats weighing 200 to 218 g. Three days after administration, the test compound was administered orally to the rats and the blood sugar level was determined before and 2 hours after administration of the test compound.

Alloxan Diabetes Rats [5] = test: Hypoglycemic activity (b)(2): effect on alloxan diabetes rats, time course of blood sugar (o-toluidine-boric acid method); type: in vivo, rats (Wister male); design: unit not given here; settings: 100 mg/kg, oral
Experimental: (2) Alloxan was administered intravenously at a dose of 18 mg/kg to 9-10W Wister male rats weighing 240 to 280 g. Three days after administration, the test compound was administered orally to the rats (after fasting for 4 hours) and the blood sugar level was determined before and 1, 2 and 3 hours after administration of the test compound with respect to the blood samples drawn from the jugular vein by the o-toluidine-boric acid method.

Normal Mice = test: Hypoglycemic activity (d): effect on normal mice, ED20; type: in vivo, mice (ddY male); settings: Mus musculus; oral; 3 hours after administration
Experimental: (§1) Alloxan was administered intravenously at a dose of 50 mg/kg from a tail vein to 5W ddY male mice weighing 23 to 27 g (10 […] per group). Seven days after administration, the test compound was administered orally to the mice and a blood sample was collected from the sacrificed mice after 3 hours. The blood sugar level of the sample was determined by the o-toluidine-boric acid method. The percent inhibition was calculated from the values in test group and the control, and a 20% inhibitory effective dose (ED20) was determined from a dose response curve.
The test compound was administered orally to 6W ddY male mice and, 3 hours after administration, a blood sample was drawn from the sacrificed mice. The blood sugar level of the sample was determined and ED20 values were calculated in the same manner as described in (c) above.

Alloxan Diabetes Mice [6] = test: Hypoglycemic activity (c): effect on alloxan diabetes mice, ED20; type: in vivo, mice (ddY male); settings: Mus musculus; oral; 3 hours after administration; alloxan 50 mg/kg i.v.
Experimental: as §1

[7] = rabbit PRP, sodium arachidonate final concentration 5×10^-4 M, read-out: OC50, Arachidonic Acid
[8] = rabbit PRP, ADP final concentration 5×10^-6 M, read-out: IC50, ADP

## CN1CCN(c2nc3c(c(N4CCCC4)n2)SCCC3)CC1.O=C(O)/C=C\C(=O)O [Compound F, 2-(N-methylpiperazino)-4-pyrrolidino-7,8-dihydro-6H-thiopyrano[3,2-d]pyrimidine maleate]
Platelet aggregation; [7]
  IC50: 30 µM
Platelet aggregation; rabbit PRP
  Percent Inhibition, Collagen: 73%
[1]
  anti-histamine activity compared with Diphenhydramine (in words): substantially equal to that of Diphenhydramine
  Kb: 0.0204 µM
[2]; iv, read-out: LD50, i.v.
  LD50 at 168 h: 100 mg/kg
[2]; po, read-out: LD50, p.o.
  LD50 at 168 h: 1250 mg/kg

## C1CSc2c(nc(N3CCNCC3)nc2N2CCOCC2)C1.O=C(O)/C=C\C(=O)O [Compound G, 4-morpholino-2-piperazino-7,8-dihydro-6H-thiopyrano[3,2-d]pyrimidine maleate]
Alloxan Diabetes Mice [3]; 200 mg/kg
  hypoglycemic activity (in words): significant hypoglycemic activity
  % Change in Blood Sugar Level: -39.5%
  Blood Sugar Level Mean ± S.E.: 195.2 ± 39.7 mg/dL
Platelet aggregation; [8]
  IC50: 150 µM
Platelet aggregation; [7]
  IC50: 750 µM
Platelet aggregation; rabbit PRP
  Percent Inhibition, Collagen: 95%
Alloxan Diabetes Rats [4]; 100 mg/kg
  % Change in Blood Sugar Level: -30.2%
  Blood Sugar Level Mean ± S.E.: 286.3 ± 76 mg/dL
Alloxan Diabetes Rats [4]; 100 mg/kg, maleate
  hypoglycemic activity (in words): significant hypoglycemic activity; also recorded: strongest activity
[2]; iv, read-out: LD50, i.v.
  LD50 at 168 h: 135 mg/kg
[2]; po, read-out: LD50, p.o.
  LD50 at 168 h: 960 mg/kg
Alloxan Diabetes Rats [5]; 1 hour after administration, fasted 4 hours
  Blood Sugar Level Mean ± S.E., After 1 Hr.: 141.3 ± 10.4
Alloxan Diabetes Rats [5]; 2 hours after administration, fasted 4 hours
  Blood Sugar Level Mean ± S.E., After 2 Hrs.: 130.6 ± 12.6
Alloxan Diabetes Rats [5]; 3 hours after administration, fasted 4 hours
  Blood Sugar Level Mean ± S.E., After 3 Hrs.: 130.3 ± 10.3
Alloxan Diabetes Rats [5]; before administration (baseline)
  Blood Sugar Level Mean ± S.E., Before: 189.5 ± 9.4

## CNc1nc(N2CCNCC2)nc2c1SCCC2 [Compound B, 4-methylamino-2-piperazino-7,8-dihydro-6H-thiopyrano[3,2-d]pyrimidine]
Normal Mice
  ED20: 37 mg/kg
[2]; po, read-out: LD50, p.o.
  LD50 at 168 h: 580 mg/kg
Alloxan Diabetes Mice [6]
  ED20: 53 mg/kg

## CCCCNC(=O)NS(=O)(=O)c1ccc(C)cc1 [Tolbutamide, 1-Butyl-3-(p-tolylsulfonyl)-urea, reference compound]
Alloxan Diabetes Mice [3]; 500 mg/kg
  hypoglycemic activity (in words): weak hypoglycemic activity
  % Change in Blood Sugar Level: -13.7%
  Blood Sugar Level Mean ± S.E.: 278.4 ± 25.7 mg/dL
Alloxan Diabetes Rats [4]; 300 mg/kg
  hypoglycemic activity (in words): significant hypoglycemic activity
  % Change in Blood Sugar Level: -18.6%
  Blood Sugar Level Mean ± S.E.: 285.2 ± 2.8 mg/dL

## Nc1nc2c(c(N3CCNCC3)n1)SCCC2.O=C(O)/C=C\C(=O)O.O=C(O)/C=C\C(=O)O [Compound C, 2-amino-4-piperazino-7,8-dihydro-6H-thiopyrano[3,2-d]pyrimidine dimaleate]
Normal Mice
  ED20: 230 mg/kg
[2]; po, read-out: LD50, p.o.
  LD50 at 168 h: 1400 mg/kg
Alloxan Diabetes Mice [6]
  ED20: 47 mg/kg

## C1CSc2c(nc(N3CCNCC3)nc2N2CCCC2)C1.O=C(O)/C=C\C(=O)O [Compound E, 2-piperazino-4-pyrrolidino-7,8-dihydro-6H-thiopyrano[3,2-d]pyrimidine maleate]
Alloxan Diabetes Mice [3]; 200 mg/kg
  hypoglycemic activity (in words): significant hypoglycemic activity
  % Change in Blood Sugar Level: -36.3%
  Blood Sugar Level Mean ± S.E.: 205.5 ± 29.3 mg/dL
[1]
  anti-histamine activity compared with Diphenhydramine (in words): substantially equal to that of Diphenhydramine
  Kb: 0.0427 µM
[2]; iv, read-out: LD50, i.v.
  LD50 at 168 h: 125 mg/kg
[2]; po, read-out: LD50, p.o.
  LD50 at 168 h: 1170 mg/kg

## Nc1nc(N2CCNCC2)nc2c1SCCC2 [Compound D, 4-Amino-2-piperazino-7,8-dihydro-6H--thiopyrano[3,2-d]pyrimidine Dimaleate]
Normal Mice
  ED20: 11 mg/kg
[2]; po, read-out: LD50, p.o.
  LD50 at 168 h: 820 mg/kg
Alloxan Diabetes Mice [6]
  ED20: 52 mg/kg

## CN1CCN(c2nc3c(c(N4CCOCC4)n2)SCCC3)CC1 [Compound H, 2-(N-methylpiperazino)-4-morpholino-7,8-dihydro-6H-thiopyrano[3,2-d]pyrimidine]
Platelet aggregation; [8]
  IC50: 1000 µM
Platelet aggregation; [7]
  IC50: 8.4 µM
Platelet aggregation; rabbit PRP
  Percent Inhibition, Collagen: 65%
[2]; iv, read-out: LD50, i.v.
  LD50 at 168 h: 200 mg/kg
[2]; po, read-out: LD50, p.o.
  LD50 at 168 h: 1580 mg/kg

## CC(=O)Oc1ccccc1C(=O)O [Acetylsalicylic Acid (Aspirin), Acetylsalicylic Acid, reference compound]
Platelet aggregation; read-out: IC50, ADP
  IC50: 2000 µM
Platelet aggregation; read-out: OC50, Arachidonic Acid
  IC50: 180 µM

## CN1CCN(c2nc(N)c3c(n2)CCCS3)CC1 [Compound A, 4-amino-2-(N-methylpiperazino)-7,8-dihydro-6H-thiopyrano[3,2-d]pyrimidine]
Normal Mice
  ED20: 127 mg/kg
[2]; po, read-out: LD50, p.o.
  LD50 at 168 h: 1450 mg/kg
Alloxan Diabetes Mice [6]
  ED20: 60 mg/kg

## CCCCNC(=N)NC(=N)N [Buformin, 1-Butyl-biguanide, reference compound]
Alloxan Diabetes Mice [3]; 150 mg/kg
  hypoglycemic activity (in words): weak hypoglycemic activity
  % Change in Blood Sugar Level: -15.3%
  Blood Sugar Level Mean ± S.E.: 273.3 ± 28.7 mg/dL
Alloxan Diabetes Rats [4]; 100 mg/kg
  hypoglycemic activity (in words): significant hypoglycemic activity
  % Change in Blood Sugar Level: -22.9%
  Blood Sugar Level Mean ± S.E.: 275.5 ± 6.0 mg/dL
